Experimental data reported in ChEMBL document CHEMBL1201862, “PubChem BioAssay data set” (2004).
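These data come from cells grown in 96-well plates and exposed to compound for 48 hours at five concentrations. At the GI50, growth is halved.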 Active and inactive are the calls of the source. No stated cut-off is given here; in the data, active = GI50 up to about 1.1 µM and inactive = higher.

What was measured:
Experiment in all cases: NCI anticancer screen, dose series, 48 h
NCI-H522 = system: NCI-H522
A498 = system: A498
SF-539 = system: SF-539
HT-29 = system: HT-29
SW-620 = system: SW-620
ACHN = system: ACHN
OVCAR-8 = system: OVCAR-8
OVCAR-5 = system: OVCAR-5
KM12 = system: KM12
MDA-MB-435 = system: MDA-MB-435
NCI-H23 = system: NCI-H23
OVCAR-4 = system: OVCAR-4
SNB-19 = system: SNB-19
TK-10 = system: TK-10
SF-268 = system: SF-268
HL-60 = system: HL-60
HCC 2998 = system: HCC 2998
UO-31 = system: UO-31
COLO 205 = system: COLO 205
MDA-N = system: MDA-N
NCI-H460 = system: NCI-H460
786-0 = system: 786-0
Malme-3M = system: Malme-3M
SK-MEL-2 = system: SK-MEL-2
DU-145 = system: DU-145
CCRF-CEM = system: CCRF-CEM
A549 = system: A549
UACC-62 = system: UACC-62
SK-MEL-5 = system: SK-MEL-5
HOP-92 = system: HOP-92
Hs-578T = system: Hs-578T
SN12C = system: SN12C
UACC-257 = system: UACC-257
U-251 = system: U-251
SF-295 = system: SF-295
LOX IMVI = system: LOX IMVI
HCT-15 = system: HCT-15
HCT-116 = system: HCT-116
MCF7 = system: MCF7
M14 = system: M14
SNB-75 = system: SNB-75
K562 = system: K562
HOP-62 = system: HOP-62
CAKI-1 = system: CAKI-1
IGROV-1 = system: IGROV-1
SK-MEL-28 = system: SK-MEL-28
RPMI-8226 = system: RPMI-8226
MDA-MB-231 = system: MDA-MB-231
SK-OV-3 = system: SK-OV-3
MOLT-4 = system: MOLT-4
PC-3 = system: PC-3
EKVX = system: EKVX
RXF 393 = system: RXF 393
OVCAR-3 = system: OVCAR-3
T47D = system: T47D
NCI-H226 = system: NCI-H226

`C=C(CN(C)C)C1(c2ccccc2)CC2(CCCC2)C(=O)O1` (stereo unspecified) was tested. Which GI50 (NCI-H522) did it give?
The GI50 was 20.9 µM (inactive).

And the GI50 (A498)?
Its GI50 is > 100 µM (inactive).

And the GI50 (SF-539)?
The GI50 was > 100 µM (inactive).

And the GI50 (HT-29)?
Its GI50 is 24.2 µM (inactive).

And the GI50 (SW-620)?
The GI50 was > 100 µM (inactive).

What about the GI50 (ACHN) of the same compound?
The GI50 was 92.5 µM (inactive).

What about the GI50 (OVCAR-8) of the same compound?
Its GI50 is > 100 µM (inactive).

What about the GI50 (OVCAR-5) of the same compound?
The GI50 was > 100 µM (inactive).

What about the GI50 (KM12) of the same compound?
Its GI50 is > 100 µM (inactive).

And the GI50 (MDA-MB-435)?
The GI50 was 56.4 µM (inactive).

And the GI50 (NCI-H23)?
The GI50 was 27.2 µM (inactive).

What about the GI50 (OVCAR-4) of the same compound?
Its GI50 is > 100 µM (inactive).

And the GI50 (SNB-19)?
Its GI50 is > 100 µM (inactive).

What about the GI50 (TK-10) of the same compound?
The GI50 was > 100 µM (inactive).

And the GI50 (SF-268)?
Its GI50 is > 100 µM (inactive).

And the GI50 (HL-60)?
Its GI50 is 23.7 µM (inactive).

And the GI50 (HCC 2998)?
The GI50 was > 100 µM (inactive).

What about the GI50 (UO-31) of the same compound?
Its GI50 is 23.9 µM (inactive).

And the GI50 (COLO 205)?
Its GI50 is 28.2 µM (inactive).

And the GI50 (MDA-N)?
Its GI50 is 44.8 µM (inactive).

And the GI50 (NCI-H460)?
Its GI50 is > 100 µM (inactive).

What about the GI50 (786-0) of the same compound?
Its GI50 is 66.5 µM (inactive).

And the GI50 (Malme-3M)?
The GI50 was 14.7 µM (inactive).

And the GI50 (SK-MEL-2)?
Its GI50 is > 100 µM (inactive).

And the GI50 (DU-145)?
Its GI50 is > 100 µM (inactive).

What about the GI50 (CCRF-CEM) of the same compound?
Its GI50 is 20.6 µM (inactive).

And the GI50 (A549)?
Its GI50 is > 100 µM (inactive).

What about the GI50 (UACC-62) of the same compound?
The GI50 was > 100 µM (inactive).

What about the GI50 (SK-MEL-5) of the same compound?
The GI50 was > 100 µM (inactive).

And the GI50 (HOP-92)?
Its GI50 is 17.9 µM (inactive).

What about the GI50 (Hs-578T) of the same compound?
Its GI50 is > 100 µM (inactive).

And the GI50 (SN12C)?
The GI50 was > 100 µM (inactive).

And the GI50 (UACC-257)?
Its GI50 is 49.2 µM (inactive).

And the GI50 (U-251)?
The GI50 was > 100 µM (inactive).

What about the GI50 (SF-295) of the same compound?
The GI50 was > 100 µM (inactive).

What about the GI50 (LOX IMVI) of the same compound?
The GI50 was 53 µM (inactive).

What about the GI50 (HCT-15) of the same compound?
The GI50 was 76.9 µM.

What about the GI50 (HCT-116) of the same compound?
The GI50 was 70.3 µM (inactive).

What about the GI50 (MCF7) of the same compound?
Its GI50 is 74.1 µM (inactive).

And the GI50 (M14)?
The GI50 was 66.5 µM (inactive).

What about the GI50 (SNB-75) of the same compound?
The GI50 was > 100 µM (inactive).

What about the GI50 (K562) of the same compound?
The GI50 was 30.2 µM (inactive).

What about the GI50 (HOP-62) of the same compound?
Its GI50 is > 100 µM (inactive).

And the GI50 (CAKI-1)?
The GI50 was > 100 µM (inactive).

What about the GI50 (IGROV-1) of the same compound?
Its GI50 is > 100 µM (inactive).

What about the GI50 (SK-MEL-28) of the same compound?
The GI50 was > 100 µM (inactive).

And the GI50 (RPMI-8226)?
Its GI50 is 88.3 µM (inactive).

What about the GI50 (MDA-MB-231) of the same compound?
Its GI50 is 64.4 µM (inactive).

And the GI50 (SK-OV-3)?
The GI50 was > 100 µM (inactive).

And the GI50 (MOLT-4)?
The GI50 was 24.9 µM (inactive).

And the GI50 (PC-3)?
The GI50 was 79.6 µM (inactive).

What about the GI50 (EKVX) of the same compound?
Its GI50 is > 100 µM (inactive).

What about the GI50 (RXF 393) of the same compound?
The GI50 was > 100 µM (inactive).

What about the GI50 (OVCAR-3) of the same compound?
The GI50 was 38.7 µM (inactive).

And the GI50 (T47D)?
Its GI50 is > 100 µM (inactive).

What about the GI50 (NCI-H226) of the same compound?
Its GI50 is > 100 µM (inactive).
